Consider two molecules from patent US20250179024A1, “AMYLOID AND ASSOCIATED PATHOLOGY MODULATORS AND METHODS THEREOF” (Jawaharlal Nehru Centre for Advanced Scientific Research, priority 2022, published 2025).

One data set has as its system SH-SY5Y cells. Put plainly: In cellulo antioxidant assay, rescue from H2O2 induced cell death (MTT). In kind it is cell-based. Particulars: H2O2 200 μM, NMIs 20 μM, 18 h; H2O2 treated cells ~72%. As to the method: To assess in cellulo antioxidant activity of NMIs, rescue of neuronal cells from H2O2 induced cell death was assessed by MTT assay. The cells were seeded onto 96 well plate at seeding density of 25,000 cells per well. After 24 h cells were treated with H2O2 (200 μM) alone and with NMIs (20 μM) for 18 h. H2O2 treatment result in neuronal cell death and potent antioxidant molecule rescue cells. The cell viability was assessed by MTT assay and percentage cell viability was calculated. ABTS (λmax at 734 nm) radical scavenging assay assessed the ability of NMIs to quench nitrogen radicals (RNS). […] These in vitro experiments have established M1 and M3 as effective antioxidants and further their ability to scavenge ROS in cellulo was assessed. Treatment of cells with H2O2 was known to generate ROS and cause DNA damage, protein oxidation, lipid peroxidation and mitochondrial dysfunction, which led to cell death. The neuronal cells were treated with H2O2 (200 μM) alone and with NMIs (20 μM) for 18 h and cell viability by MTT assay. […] The production of excess ROS by Aβ results in oxidative stress and elicits stress response.

Data set [1] addresses T1, Aβ in the presence of Cu (II) (Homo sapiens, UniProt P05067).
T1 construct: is a 42 amino acid proteolytic product from the amyloid precursor protein; purchased Invitrogen
Put plainly: Cu-dependent Aβ aggregation, native PAGE and western blot. In kind it is biochemical. Particulars: Aβ 10 μM, Cu (II) 20 μM, NMIs 20 μM, 37° C., 48 h. How it is done:
The samples were prepared by incubating Aβ42 with specific concentration of NMI compounds of present disclosure and metal ions for 48 h and then subjected to 6% native polyacrylamide gel electrophoresis (Native-PAGE) in tris-glycine buffer. The lower molecular weight aggregates permeabilized through the gel and resolved in the gel. Higher molecular aggregates stuck in the upper part of wells and potentially carried in gel. Then the protein was transferred to PVDF membrane for 4 h at cold condition maintained using ice cold transfer buffer and immersing the transfer apparatus in ice. Then the blots were continued similar to dot blots.
The absorbance and fluorescence spectroscopy studies together with mass spectrometry data confirmed the selective Cu (II) or Zn (II) chelation property of M1 and M3. […] Aβ (10 μM) was incubated in the presence of Cu (II) or Zn (II) (20 μM) with NMIs at 37° C. for 48 h and the samples were subjected to native PAGE and western blot analysis. […] Modulation of Zn-dependent Aβ aggregation by M4 was attributed to its two Zn (II) chelation centres. M3 with dopamine and DPA moieties effectively modulated both Cu (II) and Zn (II)-dependent Aβ aggregation. The effect of NMIs on the morphological outcome of metal-dependent Aβ aggregation was visualized by AFM imaging (FIGS. 1E and 1F). Aβ in the presence of Cu (II) and Zn (II) formed dense and thick fibrils.
Background: Immunoblotting shows a protein as a band on a membrane.

A further data set concerns the target T2, Aβ (Homo sapiens, UniProt P05067).
T2 construct: is a 42 amino acid proteolytic product from the amyloid precursor protein; purchased Invitrogen
Put plainly: AFM imaging of Aβ samples. Particulars: for morphology of Aβ sample, aggregation inhibition: Aβ 10 μM, FIG. 1C. As to the method:
AFM imaging was done to understand the morphological characteristics of Aβ and NMI treated samples. The samples from Aβ aggregation inhibition and dissolution studies were used for AFM imaging. 25 μL of sample was drop-casted on freshly cleaved mica substrate. The Aβ samples were allowed to adhere to substrate surface for 15 min, washed with filtered MiliQ water and air dried. The samples were imaged in Scan assist Air mode in Bioscope resolve AFM system (Bruker). The images were processed and analyzed using NanoScope analysis software. […] It has been observed that the oligomers are a highly toxic species compared to Aβ fibrillar aggregates. The ability of NMIs (M3) to inhibit the formation of Aβ oligomers was assessed by dot blot assay. Aβ peptide (10 μM) was incubated with NMIs at 4° C. for 24 h followed by probing with A11 oligomer-specific antibody. […] Native PAGE and western blot analysis was carried out to understand the size distribution of Aβ aggregated species. […] In order to analyse the higher order aggregates not permeable in the gel matrix and the morphological characteristics, Aβ samples were subjected to atomic force microscopy (AFM) imaging.

Data set [2] is described as follows: Metal chelation by UV-visible absorbance and fluorescence spectra. The data set is classed as physicochemical. Particulars: for interaction with Cu (II) and Zn (II), change in absorbance spectra / chelation among different physiologically relevant metals, absorbance: NMIs 20 μM; for chelation among different physiologically relevant metals, absorbance: metals 40 μM. The source says: The compounds of the present disclosure (NMIs) were designed to chelate with metals (Cu and Zn) and alleviate the metal-dependent Aβ toxicity. […] The change in absorbance and fluorescence spectra of NMIs were monitored to understand the interaction with Cu(II) and Zn(II). […] The fluorescence intensity of M3 at 525 nm decreased with the increasing concentration of Cu(II) or Zn(II) (FIGS. 6(A & B)).

T2 sequence (P05067 672-713 limits assumed): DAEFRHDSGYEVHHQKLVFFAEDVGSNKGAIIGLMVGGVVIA
T1 sequence (P05067 672-713 limits assumed): as above

As a reminder, the cell viability is a read-out of living cells in per cent, often relative to untreated cells. Read a high cell viability as better survival. Consider `CN(C)c1ccc2c3c(cccc13)C(=O)N(CCc1ccc(O)c(O)c1)C2=O` [M1, 2-(3,4-dihydroxyphenethyl)-6-(dimethylamino)-1H-benzo[de]isoquinoline-1,3(2H)-dione], for which the cell viability in the data set on SH-SY5Y cells amounted to 89%. The “formation of Aβ aggregates in the presence of Cu (II)” value in data set [1] is given as “reduced the formation of aggregates”. Further, the “morphology of Aβ sample, aggregation inhibition” value at Aβ (NMIs 20 μM) is recorded as “amorphous structures”. The “interaction with Cu (II) and Zn (II), change in absorbance spectra” value in data set [2] (Cu or Zn 2.5 to 40 μM) is “effectively interacted with Cu (II) and Zn (II)”. Besides, the “chelation among different physiologically relevant metals, absorbance” value in data set [2] is “selectively chelated with Cu(II) and Zn (II)”.

`O=C1c2cccc3c(N(Cc4ccccn4)Cc4ccccn4)ccc(c23)C(=O)N1CCc1ccc(O)c(O)c1` [M3, 6-(bis(pyridin-2-ylmethyl)amino)-2-(3,4-dihydroxyphenethyl)-1H-benzo[de]isoquinoline-1,3(2H)-dione] registered a cell viability with SH-SY5Y cells of 91%. Moreover, the “formation of Aβ aggregates in the presence of Cu (II)” value in data set [1] was “reduced the formation of aggregates”. Moreover, the “morphology of metal-dependent Aβ aggregation” value at Aβ (Aβ 10 μM with Cu (II) or Zn (II), NMIs 20 μM, FIGS. 1E and 1F) is “minimal Aβ fibrils and mostly small amorphous clumps”. Moreover, the “morphology of Aβ sample, aggregation inhibition” value on Aβ (NMIs 20 μM) is “amorphous structures”. The “morphology of preformed fibrils after treatment” value at Aβ (Aβ aggregates 10 μM, FIG. 4C) is listed as “amorphous clumps”. For the same molecule, in data set [2] (20 μM, Cu or Zn 2.5 to 40 μM), the “fluorescence intensity at 525 nm with increasing concentration of Cu(II) or Zn(II)” value was “decreased”. Besides, the “interaction with Cu (II) and Zn (II), change in absorbance spectra” value in data set [2] (Cu or Zn 2.5 to 40 μM) was “effectively interacted with Cu (II) and Zn (II)”. The “chelation among different physiologically relevant metals, absorbance” value in data set [2] is “selectively chelated with Cu(II) and Zn (II)”.
